In patent publication US10752640B2, “Compounds active towards bromodomains” (NUEVOLUTION A/S, priority 2014, dated 2020):

How the values were obtained:
IL-12p40 = assay: Cytokine release inhibition assay: LPS-induced cytokine release from human PBMCs; type: cell-based; conditions: PBMC, LPS 1 ng/mL, 18 h, read-out: LPS IC50 IL12p40 μM
Experimental: Cytokine release inhibition assay: LPS-induced cytokine release from human peripheral blood mononuclear cells (PBMCs)
200,000 PBMCs were seeded per well of a 96-well plate in 160 μL of medium. Afterwards, 20 μL of ten times concentrated working dilutions of compound or DMSO control were added per well. Cells were pre-incubated with compounds for 1 h at 37° C., 5% CO2, 95% humidity and 20 μL of ten times concentrated LPS was added to cells (Sigma L4391, final concentration 1 ng/mL). Following 18 h incubation at 37° C., 5% CO2, 95% humidity, plates were centrifuged for 10 minutes at 300×g. 150 μL of supernatants were collected for IL-12p40 determination. The concentration of IL-12p40 in supernatants was determined by sandwich ELISA (enzyme-linked immunosorbent assay) using capture and detection antibodies according to the manufacturer's instructions (R&D Systems DY1240). Data can be analyzed using GraphPad Prism, and IC50 data can be obtained using non-linear regression curve fit using log(compound) vs response (variable slope).

[1] = molecular target: T1, BRD4(2), second bromodomain of BRD4 (Homo sapiens, UniProt O60885); assay: Bromoscan assay BRD4(2) (DiscoveRx); type: binding; conditions: read-out: BromoScan BRD4_2 Kd/nM
T1 construct: BRD4(2) for the second bromodomain of BRD4; purchased DiscoveRx Corporation (assay service); host or cells: T7 phage grown in an E. coli host derived from the BL21 strain
Experimental: (§1) Bromoscan assays were run by DiscoveRx Corporation. The relevant assay names are BRD4(1) for the first bromodomain of BRD4 and BRD4(2) for the second bromodomain of BRD4. Further Bromoscan assays covering other bromodomains could be employed to establish the selectivity profile of a compound of interest. To run the Bromoscan assay, a T7 phage strain displaying the relevant bromodomain was grown in parallel in 24-well blocks in an E. coli host derived from the BL21 strain. E. coli were grown to log-phase and infected with T7 phage from a frozen stock (multiplicity of infection=0.4) and incubated with shaking at 32° C. until lysis (90-150 minutes). The lysates were centrifuged (5,000×g) and filtered (0.2 μm) to remove cell debris. Streptavidin-coated magnetic beads were treated with biotinylated small molecule or acetylated peptide ligands for 30 minutes at room temperature to generate affinity resins for bromodomain assays. The liganded beads were blocked with excess biotin and washed with blocking buffer (SeaBlock (Pierce), 1% BSA (bovine serum albumin), 0.05% Tween 20, 1 mM DTT (dithiothreitol)) to remove unbound ligand and to reduce non-specific phage binding. Binding reactions were assembled by combining bromodomains, liganded affinity beads, and test compounds in 1× binding buffer (17% SeaBlock, 0.33×PBS, 0.04% Tween 20, 0.02% BSA, 0.004% Sodium azide, 7.4 mM DTT). Test compounds were prepared as 1000× stocks in 100% DMSO and subsequently diluted 1:10 in monoethylene glycol (MEG) to create stocks at 100× the screening concentration (resulting stock solution is 10% DMSO/90% MEG). The compounds were then diluted directly into the assays such that the final concentration of DMSO and MEG were 0.1% and 0.9%, respectively. All reactions were performed in polystyrene 96-well plates in a final volume of 0.135 ml. The assay plates were incubated at room temperature with shaking for 1 hour and the affinity beads were washed with wash buffer (1×PBS, 0.05% Tween 20). The beads were then re-suspended in elution buffer (lx PBS, 0.05% Tween 20, 2 μM nonbiotinylated affinity ligand) and incubated at room temperature with shaking for 30 minutes. The bromodomain concentration in the eluates was measured by qPCR (quantitative real-time polymerase chain reaction).

BRD4 protein = BRD4 protein (Homo sapiens, UniProt O60885); assay: FRET assay, half maximal inhibitory concentration (IC50); type: binding; conditions: BRD4 protein 50 nM, Biotin-H4KAc4 peptide 12.5 nM
Summary of the method: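 HTRF: 50 nM BRD4 preincubated 30 min at room temperature with compound (10-fold series from 50 μM in 12.5% DMSO) in 50 mM HEPES pH 7.5, 100 mM NaCl, 0.05% CHAPS. Then 12.5 nM biotin-H4KAc4 peptide for 30 min, and anti-GST XL665 (10 nM) plus streptavidin cryptate (2.4 nM) with 0.4 M KF for 1 h. IC50 by variable-slope fit.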

[2] = molecular target: T2, BRD4(1), first bromodomain of BRD4 (Homo sapiens, UniProt O60885); assay: Bromoscan assay BRD4(1) (DiscoveRx); type: binding; conditions: for Kd: first bromodomain of BRD4, read-out: BromoScan BRD4_1 Kd/nM; for BromoScan BRD4_2/1: ratio of Kd BRD4_2 to BRD4_1, selectivity for BRD4_1 over BRD4_2
T2 construct: BRD4(1) for the first bromodomain of BRD4; purchased DiscoveRx Corporation (assay service); host or cells: T7 phage grown in an E. coli host derived from the BL21 strain
Experimental: as §1

MV-4-11 tumor cells = assay: Cell viability assay (CellTiter-Glo); type: cell-based; conditions: Homo sapiens, MV4-11; MV-4-11 cells, 72 hours with compound
Experimental: Grow MV-4-11 tumor cells (ATCC CRL-9591) in suspension at 37° C. in a humidified atmosphere (5% CO2, 95% air, IMDM (Iscove's Modified Dulbecco's Medium) medium supplemented with 10% FBS (fetal bovine serum)) Seed cells at a density of 10.000 cells per well of a flat-bottomed 96 well plate in 50 μL of medium. After 24 hours, add 50 μL of test compound or DMSO control from a pre-generated compound dilution series in medium. After an additional 72 hours, add 100 μL of pre-mixed CellTiter-Glo reagent (Promega G7570) to each well, shake for two minutes to allow cell lysis followed by 10 minutes of incubation at room temperature without shaking. Read luminescence on an Envision reader (Perkin Elmer). The inhibition of cell viability (IC) can be expressed as follows:
[formula] IC data can be analyzed using GraphPad Prism, and IC50 data can be obtained using non-linear regression curve fit using log(compound) vs response (variable slope). The effect of compound on the viability of other cell lines can be assayed under similar conditions, taking into account the growth requirement of the individual cell line.

[3] = A Further List of Classification

Question: Which IC50 (IL-12p40) does the source give for Cc1cc(O)nc2ccc(NC(=O)c3cc(C(C)O)ncc3N3CCCC3)cc12 (centres unmarked) [Compound-43] here?
Answer: 400 nM

Question: What about the Kd [1] of the same compound?
Answer: 79 nM

Question: What about the IC50 (BRD4 protein; List of Classification) of the same compound?
Answer: < 200 nM

Question: And the Kd [2]?
Answer: 2.4 nM

Question: What about the “BromoScan BRD4_2/1” value [2] of the same compound?
Answer: 32.9

Question: Which results are given for Cc1cc(O)nc2ccc(NC(=O)c3cc(S(=O)(=O)N4CCCCC4)ccc3N3CCOCC3)cc12 [Compound-67, N-(2-hydroxy-4-methyl-6-quinolyl)-2-morpholino-5-(1-piperidylsulfonyl)benzamide]?
Answer: Kd [1]: 1180 nM; IC50 (BRD4 protein; List of Classification): < 200 nM; Kd [2]: 6.2 nM; BromoScan BRD4_2/1 [2]: 190.9; IC50 (MV-4-11 tumor cells): 1200 nM

Question: Which IC50 (IL-12p40) does the source give for Cc1cc2nc(O)cc(C)c2cc1NC(=O)c1cc(S(=O)(=O)N(C)C)ccc1N1CCOCC1 [Compound-99, 5-(dimethylsulfamoyl)-N-(2-hydroxy-4,7-dimethyl-6-quinolyl)-2-morpholino-benzamide] here?
Answer: 400 nM

Question: And the Kd [1]?
Answer: 5600 nM

Question: What about the IC50 (BRD4 protein; List of Classification) of the same compound?
Answer: < 200 nM

Question: And the Kd [2]?
Answer: 12 nM

Question: What about the “BromoScan BRD4_2/1” value [2] of the same compound?
Answer: 466.7

Question: Which results are given for Cc1cc(O)nc2c(C)cc(NC(=O)c3cc(S(=O)(=O)N(C)C)ccc3N3CCCC3)cc12 [Compound-107, 5-(dimethylsulfamoyl)-N-(2-hydroxy-4,8-dimethyl-6-quinolyl)-2-pyrrolidin-1-yl-benzamide]?
Answer: Kd [1]: 28 nM; IC50 (BRD4 protein; List of Classification): < 200 nM; Kd [2]: 3.6 nM; BromoScan BRD4_2/1 [2]: 7.8; IC50 (MV-4-11 tumor cells): 700 nM

Question: What does the source list for Cc1cc(O)nc2ccc(NC(=O)c3cc(C4(N5CCOCC5)CC4)ccc3N3CCCC3)cc12 [Compound-113, N-(4-methyl-2-oxo-1,2-dihydroquinolin-6-yl)-5-(1-morpholinocyclopropyl)-2-(pyrrolidin-1-yl)benzamide]?
Answer: Kd [1]: 190 nM; IC50 (BRD4 protein; List of Classification): < 200 nM; Kd [2]: 16 nM; BromoScan BRD4_2/1 [2]: 11.9; IC50 (MV-4-11 tumor cells): 600 nM

Question: Which IC50 (IL-12p40) does the source give for Cc1cc(O)nc2ccc(NC(=O)c3cccnc3N3CCOCC3)cc12 [Compound-128, N-(2-hydroxy-4-methyl-6-quinolyl)-2-morpholino-pyridine-3-carboxamide] here?
Answer: 300 nM

Question: And the Kd [1]?
Answer: 2500 nM

Question: And the IC50 (BRD4 protein; List of Classification)?
Answer: < 200 nM

Question: And the Kd [2]?
Answer: 15 nM

Question: And the “BromoScan BRD4_2/1” value [2]?
Answer: 166.7

Question: Cc1cc(O)nc2ccc(NC(=O)c3cc(CN4CCOCC4)cnc3N3CCOC(CN(C)C)C3)cc12 (centres unmarked) [S117, 2-[2-(dimethylaminomethyl)morpholin-4-yl]-N-(2-hydroxy-4-methyl-6-quinolyl)-5-(morpholinomethyl)pyridine-3-carboxamide] was tested. Which IC50 (BRD4 protein; [3]) did it give?
Answer: > 10000 nM

Question: Cc1cc(O)nc2ccc(NC(=O)c3cc(CN4CCOCC4)cnc3N3CCC(CO)C3)cc12 (centres unmarked) [S118, 2-[3-(hydroxymethyl)pyrrolidin-1-yl]-N-(2-hydroxy-4-methyl-6-quinolyl)-5-(morpholinomethyl)pyridine-3-carboxamide] was tested. Which IC50 (BRD4 protein; [3]) did it give?
Answer: > 10000 nM

Question: With Cc1cc(O)nc2ccc(NC(=O)c3cc(CN4CCN(C)CC4)ccc3N3CCCC3)cc12 [compound 1, N-(2-hydroxy-4-methylquinolin-6-yl)-5-((4-methylpiperazin-1-yl)methyl)-2-(pyrrolidin-1-yl)benzamide] as the compound, how does the IC50 (IL-12p40) read?
Answer: 300 nM

Question: And the Kd [1]?
Answer: 330 nM

Question: And the IC50 (BRD4 protein; List of Classification)?
Answer: < 200 nM

Question: And the Kd [2]?
Answer: 13 nM

Question: What about the “BromoScan BRD4_2/1” value [2] of the same compound?
Answer: 25.4

Question: What about the IC50 (MV-4-11 tumor cells) of the same compound?
Answer: 600 nM
